Laboratory results from patent US7928139B2 (Amgen Inc., priority 2006, dated 2011).

target: HIF PHD2 (Homo sapiens, UniProt Q9GZT9); experiment: PHD2 inhibition assay (TR-FRET, VCB-Eu detection of hydroxylated P564-HIF1α peptide); format: biochemical; settings: 2 nM PHD2, 100 nM P564-HIF1α peptide, 0.25 μM 2-oxoglutarate, 100 μM FeCl2, 2 mM ascorbic acid
Experimental: Inhibition of HIF PHD2 activity was quantified utilizing the TR-FRET technology. HIF PHD2 catalyzes a hydroxyl modification on the proline residue of the P564-HIF1α peptide substrate (Biotin-DLEMLAPYIPMDDDFQL (SEQ ID NO: 7)) resulting in recognition and binding of the europylated Von Hippel-Lindau protein (pVHL), elongin B and elongin C heterotrimeric (VCB-Eu) complex.
The PHD2 inhibition assay was executed by addition of freshly dissolved FeCl2 to 178.57 μM (100 μM final concentration) in PHD2 Reaction Buffer containing 30 mM MES, pH 6, 10 mM NaCl, 0.25% Brij-35, 0.01% BSA, and 1% DMSO. 28 μL of the iron solution and 2 μL of inhibitor compounds serially diluted in 100% DMSO (5% DMSO final) were added to black polypropylene 96-well microtiter plates. To that, 10 μL of 10 nM PHD2 (2 nM final) was added to all wells of the plate except for the 8 wells of column 12 (LO control), and allowed to incubate at room temperature on the shaker for one hour. Column 6 was the HI control containing PHD2 enzyme and 5% DMSO vehicle, but no inhibitor compound. To initiate the PHD2 enzymatic reaction, 10 μL of a solution containing 500 nM P564-HIF1α peptide (100 nM final), 10 mM ascorbic acid (2 mM final), and 1.25 μM 2-oxoglutarate (α-ketoglutarate; 0.25 μM final) in PHD2 Reaction Buffer was added to all wells of the plate and allowed to incubate on the shaker at room temperature for one hour.
The reaction was terminated by addition of 25 μL TR-FRET Buffer (50 mM TRIS-HCl, pH 9, 100 mM NaCl, 0.05% BSA, and 0.5% Tween-20) containing 150 mM succinate (product inhibitor; 50 mM final), 75 nM streptavidin-APC (25 nM final), and 7.5 nM VCB-Eu (2.5 nM final). The TR-FRET detection reagents were placed on a shaker for 1 hour to reach binding equilibrium before reading on the Discovery platform (PerkinElmer). Europium is excited at 315 nm and phosphoresces at 615 nm with a large Stoke's shift. APC, in turn, emits at 655 nm upon excitation at 615 nm. The TR-FRET signal is measured as the ratio of the APC 655 nm signal divided by the internal europium reference 615 nm emission signal.
The POC (percentage of control) was determined by comparing the signal from hydroxylated peptide substrate in the enzyme reaction containing inhibitor compound with that from PHD2 enzyme with DMSO vehicle alone (HI control), and no enzyme (LO control). POC was calculated using the formula: % control (POC)=(cpd−average LO)/(average HI−average LO)*100. Data (consisting of POC and inhibitor concentration in μM) was fitted to a 4-parameter equation (y=A+((B−A)/(1+((x/C)^D))), where A is the minimum y (POC) value, B is the maximum y (POC), C is the x (cpd concentration) at the point of inflection and D is the slope factor) using a Levenburg-Marquardt non-linear regression algorithm.

HIF PHD2, sequence (Q9GZT9 whole entry): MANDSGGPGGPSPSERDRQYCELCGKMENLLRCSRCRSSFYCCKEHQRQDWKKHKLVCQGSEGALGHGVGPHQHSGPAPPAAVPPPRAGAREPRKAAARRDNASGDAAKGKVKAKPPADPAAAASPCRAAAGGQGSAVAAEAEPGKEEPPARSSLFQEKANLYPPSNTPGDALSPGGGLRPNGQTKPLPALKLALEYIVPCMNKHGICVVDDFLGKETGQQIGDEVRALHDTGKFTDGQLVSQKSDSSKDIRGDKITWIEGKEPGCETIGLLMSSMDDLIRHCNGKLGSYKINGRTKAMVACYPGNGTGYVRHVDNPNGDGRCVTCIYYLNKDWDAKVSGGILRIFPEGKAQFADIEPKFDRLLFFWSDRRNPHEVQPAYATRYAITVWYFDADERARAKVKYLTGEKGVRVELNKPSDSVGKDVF

SMILES	IC50
C[C@@]1(c2ccc(Cl)cc2)C(=O)C(C(=O)NCC(=O)O)=C(O)c2cc(Cl)ccc21 (single isomer, unassigned) [Example 29]	100 to 500 nM
C[C@]1(c2ccc(Cl)cc2)C(=O)C(C(=O)NCC(=O)O)=C(O)c2cc(Cl)ccc21 (single isomer, unassigned) [Example 30]	500 to 1000 nM
C[C@@]1(c2ccccc2)C(O)=C(C(=O)NCC(=O)O)C(=O)c2ccccc21 (single isomer, unassigned) [Example 114, N-(((4S)-3-Hydroxy-4-methyl-1-oxo-4-phenyl-1,4-dihydro-2-naphthalenyl)carbonyl)glycine or N-(((4R)-3-Hydroxy-4-methyl-1-oxo-4-phenyl-1,4-dihydro-2-naphthalenyl)carbonyl)glycine]	100 to 500 nM
C[C@@]1(C#N)C(=O)C(C(=O)CCC(=O)O)=C(O)c2cc(Cl)ccc21 (single isomer, unassigned) [Example 120, 4-(7-chloro-4-cyano-1-hydroxy-4-methyl-3-oxo-3,4-dihydronaphthalen-2-yl)-4-oxobutanoic acid]	1000 to 10000 nM
C[C@@]1(C#N)C(=O)C(C(=O)CCC(=O)O)=C(O)c2cc(Cl)ccc21 (single isomer, unassigned) [Example 124, (R)-4-(7-chloro-4-cyano-1-hydroxy-4-methyl-3-oxo-3,4-dihydronaphthalen-2-yl)-4-oxobutanoic acid or (S)-4-(7-chloro-4-cyano-1-hydroxy-4-methyl-3-oxo-3,4-dihydronaphthalen-2-yl)-4-oxobutanoic acid]	1000 to 10000 nM
CC1(C#N)C(=O)C(C(=O)NCC(=O)O)=C(O)c2ccc(Br)cc21 (single isomer, unassigned) [Example 139]	< 100 nM
CC1(C#N)C(=O)C(C(=O)NCC(=O)O)=C(O)c2ccc(Cl)cc21 (single isomer, unassigned) [Example 141]	< 100 nM
C[C@@]1(C#N)C(=O)C(C(=O)NCC(=O)O)=C(O)c2cc(F)c(F)cc21 (single isomer, unassigned) [Example 142, (R)-2-(1-cyano-6,7-difluoro-4-hydroxy-1-methyl-2-oxo-1,2-dihydronaphthalene-3-carboxamido) acetic acid or (S)-2-(1-cyano-6,7-difluoro-4-hydroxy-1-methyl-2-oxo-1,2-dihydronaphthalene-3-carboxamido) acetic acid]	< 100 nM
CC1(C)C(=O)C(C(=O)NCC(=O)O)=C(O)c2cc(-c3cccnc3)ccc21 [Example 5, N-((4-Hydroxy-1,1-dimethyl-2-oxo-6-(3-pyridinyl)-naphthalen-3-yl)carbonyl)glycine]	< 100 nM
Cc1ccc(-c2ccc3c(c2)C(O)=C(C(=O)NCC(=O)O)C(=O)C3(C)C)c(F)n1 [Example 6, N-((6-(2-Fluoro-6-methyl-3-pyridinyl)-4-hydroxy-1,1-dimethyl-2-oxo-naphthalen-3-yl)carbonyl)glycine]	100 to 500 nM
Cc1cc(-c2ccc3c(c2)C(O)=C(C(=O)NCC(=O)O)C(=O)C3(C)C)ccn1 [Example 7, N-((4-Hydroxy-1,1-dimethyl-6-(2-methyl-4-pyridinyl)-2-oxo-naphthalen-3-yl)carbonyl)glycine]	100 to 500 nM
Cc1ncccc1-c1ccc2c(c1)C(O)=C(C(=O)NCC(=O)O)C(=O)C2(C)C [Example 8, N-((4-Hydroxy-1,1-dimethyl-6-(2-methyl-3-pyridinyl)-2-oxo-naphthalen-3-yl)carbonyl)glycine]	100 to 500 nM

The remaining lines, values ahead:

IC50	SMILES
100 to 500 nM	CCC1(C)C(=O)C(C(=O)NCC(=O)O)=C(O)c2cc(Cl)ccc21 (single isomer, unassigned) [Example 78]
< 100 nM	C[C@@]1(C#N)C(=O)C(C(=O)NCC(=O)O)=C(O)c2cc(F)ccc21 (single isomer, unassigned) [Example 135, (R)-2-(1-cyano-6-fluoro-4-hydroxy-1-methyl-2-oxo-1,2-dihydronaphthalene-3-carboxamido) acetic acid or (S)-2-(1-cyano-6-fluoro-4-hydroxy-1-methyl-2-oxo-1,2-dihydronaphthalene-3-carboxamido) acetic acid]
< 100 nM	C[C@@]1(C#N)C(=O)C(C(=O)NCC(=O)O)=C(O)c2ccc(F)cc21 (single isomer, unassigned) [Example 137, (R)-2-(1-cyano-7-fluoro-4-hydroxy-1-methyl-2-oxo-1,2-dihydronaphthalene-3-carboxamido) acetic acid or (S)-2-(1-cyano-7-fluoro-4-hydroxy-1-methyl-2-oxo-1,2-dihydronaphthalene-3-carboxamido) acetic acid]
< 100 nM	O=C(O)CNC(=O)C1=C(O)c2cc(Cl)ccc2C2(CCOCC2)C1=O [Example 1, N-((6-Chloro-4-hydroxy-2-oxo-2′,3′,5′,6′-tetrahydro-2H-spiro[naphthalene-1,4′-pyran]-3-yl)carbonyl)glycine]
< 100 nM	CC1(C)C(=O)C(C(=O)NCC(=O)O)=C(O)c2cc(Cl)ccc21 [Example 2, N-((6-Chloro-4-hydroxy-1,1-dimethyl-2-oxo-naphthalen-3-yl)carbonyl)glycine]
< 100 nM	O=C(O)CNC(=O)C1=C(O)c2cc(C(F)(F)F)ccc2C2(CCOCC2)C1=O [Example 3, N-((4-Hydroxy-2-oxo-6-(trifluoromethyl)-2′,3′,5′,6′-tetrahydro-2H-spiro[naphthalene-1,4′-pyran]-3-yl)carbonyl)glycine]
< 100 nM	CC1(C)C(=O)C(C(=O)NCC(=O)O)=C(O)c2cc(C(F)(F)F)ccc21 [Example 4, N-((4-Hydroxy-1,1-dimethyl-2-oxo-6-(trifluoromethyl)-naphthalen-3-yl)carbonyl)glycine]
1000 to 10000 nM	CC1(C)C(=O)C(C(=O)NCC(=O)O)=C(O)c2cc(-c3cncc(F)c3)ccc21 [Example 9, N-((6-(5-Fluoro-3-pyridinyl)-4-hydroxy-1,1-dimethyl-2-oxo-naphthalen-3-yl)carbonyl)glycine]
< 100 nM	O=C(O)CNC(=O)C1=C(O)c2cc(Cl)ccc2[C@@]2(CCOC2)C1=O [Example 10, N-(((3R)-6′-Chloro-4′-hydroxy-2′-oxo-4,5-dihydro-spiro[furan-3,1′-naphthalen]-3′-yl)carbonyl)glycine]
< 100 nM	O=C(O)CNC(=O)C1=C(O)c2cc(Cl)ccc2[C@]2(CCOC2)C1=O [Example 11, N-(((3S)-6′-Chloro-4′-hydroxy-2′-oxo-4,5-dihydro-spiro[furan-3,1′-naphthalen]-3′-yl)carbonyl)glycine]
< 100 nM	O=C(O)CNC(=O)C1=C(O)c2cc(Cl)ccc2C2(CCOC2)C1=O (stereo not shown) [Example 12, N-((6′-Chloro-4′-hydroxy-2′-oxo-4,5-dihydro-2′H-spiro[furan-3,1′-naphthalen]-3′-yl)carbonyl)glycine]
< 100 nM	CC1(C)C(=O)C(C(=O)NCC(=O)O)=C(O)c2cc(F)ccc21 [Example 13, N-((6-Fluoro-4-hydroxy-1,1-dimethyl-2-oxo-naphthalene-3-yl)carbonyl)glycine]
< 100 nM	COc1cc2c(cc1Br)C1(CCOCC1)C(=O)C(C(=O)NCC(=O)O)=C2O [Example 14, N-((7-Bromo-4-hydroxy-6-(methyloxy)-2-oxo-2′,3′,5′,6′-tetrahydro-spiro[naphthalene-1,4′-pyran]-3-yl)carbonyl)glycine]
100 to 500 nM	CCC1(C)C(=O)C(C(=O)NCC(=O)O)=C(O)c2cc(Cl)ccc21 (stereo not shown) [Example 15, N-((6-Chloro-1-ethyl-4-hydroxy-1-methyl-2-oxo-naphthalen-3-yl)carbonyl)glycine]
< 100 nM	COc1ccc2c(c1)C(O)=C(C(=O)NCC(=O)O)C(=O)C21CCOCC1 [Example 16, N-((4-Hydroxy-6-(methyloxy)-2-oxo-2′,3′,5′,6′-tetrahydro-spiro[naphthalene-1,4′-pyran]-3-yl)carbonyl)glycine]
< 100 nM	O=C(O)CNC(=O)C1=C(O)c2cc(F)ccc2C2(CCOCC2)C1=O [Example 17, N-((6-Fluoro-4-hydroxy-2-oxo-2′,3′,5′,6′-tetrahydro-spiro[naphthalene-1,4′-pyran]-3-yl)carbonyl)glycine]
